For one assay, the target named is Rhodesain (Trypanosoma brucei rhodesiense, UniProt Q95PM0). The assay can be described thus: Inhibition of Trypanosoma brucei rhodesiense rhodesain.
Assay [1] deals with Trypanosoma brucei brucei. Kind of assay: Trypanocidal activity against Trypanosoma brucei brucei after 48 hrs. It counts as functional, organism-based.
For assay [2], the system named is J774. Kind of assay: Cytotoxicity against J774.1 cell line after 48 hrs. The format is functional, cell-based. As to conditions: Mus musculus, J774, 48 h.
Assay [3] concerns J774. The assay can be described thus: Selectivity index, IC50 for J774.1/IC50 for Trypanosoma brucei brucei. The format is functional.

These results are taken from ChEMBL document CHEMBL1147010, “Aziridine-2,3-dicarboxylate inhibitors targeting the major cysteine protease of Trypanosoma brucei as lead trypanocidal agents” (Bioorg Med Chem Lett, 2006).

In brackets after ≈: the same amount, converted by molar mass.

Chain of Rhodesain (Q95PM0 whole entry): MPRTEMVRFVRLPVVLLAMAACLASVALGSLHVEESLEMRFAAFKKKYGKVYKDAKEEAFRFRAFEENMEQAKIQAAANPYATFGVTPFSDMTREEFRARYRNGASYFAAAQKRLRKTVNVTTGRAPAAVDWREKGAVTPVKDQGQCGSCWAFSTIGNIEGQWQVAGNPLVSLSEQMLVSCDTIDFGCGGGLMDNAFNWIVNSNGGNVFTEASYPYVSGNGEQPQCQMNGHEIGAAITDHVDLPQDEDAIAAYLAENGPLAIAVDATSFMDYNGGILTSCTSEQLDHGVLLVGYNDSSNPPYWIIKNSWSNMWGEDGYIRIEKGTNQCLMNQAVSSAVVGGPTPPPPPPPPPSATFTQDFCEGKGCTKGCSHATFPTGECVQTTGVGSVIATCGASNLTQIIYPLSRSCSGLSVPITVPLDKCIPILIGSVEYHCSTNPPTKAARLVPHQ

One may read the Ki as a dissociation constant, usually derived from enzyme kinetics or from competition with a known ligand. Read a high Ki as weaker binding. One may read the IC50 as the concentration needed to halve the response being measured. The low end stands for inhibition by little substance, the high end for a need for much substance. `CC(C)C[C@H](NC(=O)OC(C)(C)C)C(=O)N1CC[C@H]1C(=O)N1[C@H](C(=O)OCc2ccccc2)[C@H]1C(=O)OCc1ccccc1` displayed an inhibition constant (Ki) at Rhodesain of 800 nM. Moreover, the results for the IC50 (in assay [1]; with J774 [2]) were 30.8 µM and 37.2 µM, respectively. Further, in the assay on J774 [3], the “Ratio IC50” value turned out to be 1.2.
Regarding `CCOC(=O)[C@@H]1[C@@H](C(=O)OCC)N1C(=O)[C@@H]1CCCN1C(=O)[C@H](CC(C)C)NC(=O)OC(C)(C)C`, on Rhodesain, the Ki is 3100 nM. The IC50 (in assay [1]; in the assay with J774 [2]) was greater than 100 µM each time.
Turning to `CC(C)(C)OC(=O)NCC(=O)N1CCC[C@H](C(=O)N2[C@H](C(=O)OCc3ccccc3)[C@H]2C(=O)OCc2ccccc2)C1`, affinity on Rhodesain was put at a Ki of 1100 nM. Also, the IC50 is 36.4 µM in assay [1] and greater than 100 µM in the assay on J774 [2]. Besides, the “Ratio IC50” value with J774 [3] is reported as greater than 2.7.
In the case of `CCOC(=O)[C@H]1[C@H](C(=O)OCC)N1C(=O)[C@@H]1CCN1C(=O)[C@H](CC(C)C)NC(=O)OC(C)(C)C`, the Ki at Rhodesain was 3100 nM. For the same compound, the IC50 is 20.6 µM in assay [1] and greater than 100 µM in the assay with J774 [2]. Moreover, the “Ratio IC50” value in the assay with J774 [3] is given as greater than 4.8.
The corresponding values for `C[C@@H](NC(=O)[C@@H](Cc1ccccc1)NC(=O)OC(C)(C)C)C(=O)N1[C@H](C(=O)OCc2ccccc2)[C@H]1C(=O)OCc1ccccc1` are 3900 nM, 25.8 µM, greater than 100 µM and greater than 3.8.
On to `CCOC(=O)[C@H]1[C@H](C(=O)OCC)N1C(=O)[C@@H]1CCCN(C(=O)[C@H](CC(C)C)NC(=O)OC(C)(C)C)C1`, for which, at Rhodesain, the Ki came out at 1900 nM. In addition, the half-inhibitory concentration (IC50) (in assay [1]; in the assay on J774 [2]) was greater than 100 µM throughout.
As for `CC(C)C[C@H](NC(=O)OC(C)(C)C)C(=O)N1CCC[C@H](C(=O)N2[C@H](C(=O)OCc3ccccc3)[C@H]2C(=O)OCc2ccccc2)C1`, the Ki on Rhodesain turned out to be 600 nM. In addition, the 50% inhibitory concentration (IC50) is 25.6 µM in assay [1] and greater than 100 µM in the assay with J774 [2]. Besides, the “Ratio IC50” value in the assay with J774 [3] is greater than 3.9.
The matching figures for `CC(C)C[C@@H](NC(=O)OC(C)(C)C)C(=O)N1CCC[C@H](C(=O)N2[C@H](C(=O)OCc3ccccc3)[C@H]2C(=O)OCc2ccccc2)C1`: 700 nM, 34 µM, greater than 100 µM and greater than 2.9.
`CCOC(=O)[C@H]1[C@H](C(=O)OCC)N1C(=O)CCCCCNC(=O)CCCC[C@@H]1SC[C@@H]2NC(=O)N[C@@H]21` returned a Ki at Rhodesain of 600 nM. The IC50 (in assay [1]; in the assay with J774 [2]) was greater than 100 µM throughout.
As usually defined, the MIC is the smallest concentration in the dilution series that meets the test's criterion for growth inhibition. A lower MIC goes with inhibition by little substance. Take `CC1CS(=O)(=O)CCN1/N=C/c1ccc([N+](=O)[O-])o1` (configuration not stated) [NIFURTIMOX]: in assay [1], the IC50 stood at 3.4 µM and the minimum inhibitory concentration (MIC) came to 200 µM (≈ 57.5 µg/mL). Besides, the half-maximal inhibitory concentration (IC50) in the assay with J774 [2] is greater than 200 µM. Besides, the “Ratio IC50” value with J774 [3] is listed as greater than 58.
In turn, `C[C@H](NC(=O)[C@H](Cc1ccccc1)NC(=O)OC(C)(C)C)C(=O)N1[C@H](C(=O)O)[C@H]1C(=O)O` came in with an inhibitory constant (Ki) at Rhodesain of 500 nM.
For the compound `CCOC(=O)[C@@H]1[C@@H](C(=O)OCC)N1C(=O)C1CCN(C(=O)[C@H](CC(C)C)NC(=O)OC(C)(C)C)CC1`, the affinity at Rhodesain, expressed as Ki, was 1400 nM. Besides, the IC50 (in assay [1]; with J774 [2]) was greater than 100 µM in each case.
Consider `C[C@@H](NC(=O)[C@H](Cc1ccccc1)NC(=O)OC(C)(C)C)C(=O)N1[C@H](C(=O)O)[C@H]1C(=O)O`, for which the inhibitory constant (Ki) at Rhodesain was found to be 800 nM.
On Rhodesain, `CC(C)C[C@@H](NC(=O)OC(C)(C)C)C(=O)N1CCC[C@@H](C(=O)N2[C@H](C(=O)OCc3ccccc3)[C@H]2C(=O)OCc2ccccc2)C1` came in with an inhibition constant (Ki) of 700 nM. The IC50 in assay [1] is 34 µM; with J774 [2], greater than 100 µM. For the same compound, the “Ratio IC50” value in the assay on J774 [3] is reported as greater than 2.9.
`CC(C)(C)OC(=O)NCC(=O)N1CCC[C@H]1C(=O)N1[C@H](C(=O)O)[C@H]1C(=O)O` showed a Ki on Rhodesain of 900 nM. For the same compound, the half-maximal inhibitory concentration (IC50) (in assay [1]; in the assay on J774 [2]) was greater than 100 µM in each case.
For `CCOC(=O)[C@@H]1[C@@H](C(=O)OCC)N1C(=O)[C@H]1CCCN(C(=O)[C@H](CC(C)C)NC(=O)OC(C)(C)C)C1`, the inhibition constant Ki on Rhodesain worked out at 1000 nM. In addition, the concentration for half-maximal inhibition (IC50) (in assay [1]; with J774 [2]) was greater than 100 µM each time.
Take `CC(C)C[C@H](NC(=O)OC(C)(C)C)C(=O)N1CCC[C@H]1C(=O)N1[C@@H](C(=O)OCc2ccccc2)[C@@H]1C(=O)OCc1ccccc1`: the affinity on Rhodesain, expressed as Ki, was 500 nM. In assay [1], this compound returned an IC50 of 10.9 µM and a minimum inhibitory concentration (MIC) of 125 µM (≈ 77.7 µg/mL). The compound further had an IC50 in the assay with J774 [2] greater than 125 µM. The “Ratio IC50” value in the assay with J774 [3] was greater than 11.5.
At Rhodesain, `CC(C)(C)OC(=O)NCC(=O)N1CCCC[C@H]1C(=O)N1[C@H](C(=O)OCc2ccccc2)[C@H]1C(=O)OCc1ccccc1` had an inhibition constant Ki of 700 nM. Also, half-maximal inhibition in assay [1] (IC50) required 27.6 µM.
On to `CC(C)C[C@H](NC(=O)OC(C)(C)C)C(=O)N1CC[C@@H]1C(=O)N1[C@H](C(=O)OCc2ccccc2)[C@H]1C(=O)OCc1ccccc1`, for which, at Rhodesain, the Ki came out at 800 nM. For the same compound, the IC50 was determined as 30.8 µM in assay [1] and 37.2 µM with J774 [2]. The “Ratio IC50” value with J774 [3] turned out to be 1.2.
With `CC(C)(C)OC(=O)NCC(=O)N1CCC[C@@H]1C(=O)N1[C@H](C(=O)OCc2ccccc2)[C@H]1C(=O)OCc1ccccc1`, the Ki on Rhodesain is 1600 nM. Moreover, the 50% inhibitory concentration (IC50) (in assay [1]; in the assay on J774 [2]) was greater than 100 µM throughout.
At Rhodesain, `C[C@H](NC(=O)[C@H](Cc1ccccc1)NC(=O)OC(C)(C)C)C(=O)N1[C@H](C(=O)OCc2ccccc2)[C@H]1C(=O)OCc1ccccc1` yielded an inhibition constant Ki of 1900 nM. Also, the IC50 in assay [1] was 26.7 µM; in the assay on J774 [2] it was greater than 100 µM. Further, the “Ratio IC50” value in the assay on J774 [3] is given as greater than 3.7.
The corresponding values for `CC(C)C[C@@H](NC(=O)OC(C)(C)C)C(=O)N1CCC[C@H]1C(=O)N1[C@H](C(=O)OCc2ccccc2)[C@H]1C(=O)OCc1ccccc1` are 1100 nM, 34.3 µM, greater than 100 µM and greater than 2.9.
The corresponding values for `CC(C)(C)OC(=O)NCC(=O)N1CCC[C@@H](C(=O)N2[C@H](C(=O)OCc3ccccc3)[C@H]2C(=O)OCc2ccccc2)C1` are 1100 nM, 36.4 µM, greater than 100 µM and greater than 2.7.
The compound `CCOC(=O)[C@H]1[C@H](C(=O)OCC)N1C(=O)C1CCN(C(=O)[C@H](CC(C)C)NC(=O)OC(C)(C)C)CC1` registered an inhibitory constant (Ki) at Rhodesain of 3300 nM. Further, the IC50 (in assay [1]; in the assay with J774 [2]) was greater than 100 µM throughout.
The compound `CC(C)(C)OC(=O)NCC(=O)N1CCC[C@H]1C(=O)N1[C@H](C(=O)OCc2ccccc2)[C@H]1C(=O)OCc1ccccc1` returned a Ki on Rhodesain of 3100 nM. Moreover, the 50% inhibitory concentration (IC50) (in assay [1]; in the assay with J774 [2]) was greater than 100 µM throughout.
In turn, `C[C@H](NC(=O)[C@@H](Cc1ccccc1)NC(=O)OC(C)(C)C)C(=O)N1[C@H](C(=O)O)[C@H]1C(=O)O` came in with a Ki at Rhodesain of 100 nM.
Turning to `C[C@@H](NC(=O)[C@@H](Cc1ccccc1)NC(=O)OC(C)(C)C)C(=O)N1[C@H](C(=O)O)[C@H]1C(=O)O`, the affinity on Rhodesain corresponds to a Ki of 5000 nM.
In turn, `CCOC(=O)[C@H]1[C@H](C(=O)OCC)N1C(=O)[C@H]1CCCN(C(=O)[C@H](CC(C)C)NC(=O)OC(C)(C)C)C1` registered an inhibition constant Ki on Rhodesain of 1900 nM. For the same compound, the 50% inhibitory concentration (IC50) (in assay [1]; with J774 [2]) was greater than 100 µM each time.
In turn, `CCOC(=O)[C@@H]1[C@@H](C(=O)OCC)N1C(=O)[C@@H]1CCCN(C(=O)[C@H](CC(C)C)NC(=O)OC(C)(C)C)C1` gave a Ki at Rhodesain of 1000 nM. The IC50 (in assay [1]; in the assay on J774 [2]) was greater than 100 µM throughout.
